Columns and labels:
mice = assay: induction of natriuresis in mice in vivo (procedure of European patent application 0274234); settings: dose (mg/kg) given
Description: (§1) Appropriate reagents and conditions for the various coupling and deprotection steps, described above, together with procedures for determining the biological activity of the products of formula (II) and appropriate pharmaceutical compositions and dosage ranges for their use are described in European patent application no. 0274234.
(§2) The activity of the racemate and separated enantiomers of the cis-4-{1-[2-carboxy-3-(2-methoxyethoxy)propyl]-1-cyclopentanecarboxamido}-1-cyclohexanecarboxylic acid was assessed by measuring their ability to inhibit the neutral endopeptidase E.C.3.4.24.11 in vitro or to induce natriuresis in mice in vivo following the procedure described in European patent application 0274234.

[1] = system: neutral endopeptidase E.C.3.4.24.11; assay: inhibition of neutral endopeptidase E.C.3.4.24.11 in vitro (procedure of European patent application 0274234); assay type: biochemical; settings: general statement on the separated enantiomers of the diacid
Description: as §1, §2

SMILES: COCCOCC(CC1(C(=O)N[C@H]2CC[C@@H](C(=O)O)CC2)CCCC1)C(=O)O (mixture of isomers) [(±) R,S, cis-4-{1-[2-carboxy-3-(2-methoxyethoxy)propyl]-1-cyclopentanecarboxamido}-1-cyclohexanecarboxylic acid]
- Natriuresis in mouse (i.v.) (mice): active at 3 mg/kg

SMILES: COCCOC[C@H](CC1(C(=O)N[C@H]2CC[C@@H](C(=O)O)CC2)CCCC1)C(=O)O (racemic) [(±) S, (S)-cis-4-{1-[2-Carboxy-3-(2-methoxyethoxy)propyl]-1-cyclopentanecarboxamido}-1-cyclohexanecarboxylic acid]
- Natriuresis in mouse (i.v.) (mice): active at 1.5 mg/kg

SMILES: COCCOCC(CC1(C(=O)N[C@H]2CC[C@@H](C(=O)O)CC2)CCCC1)C(=O)O (relative stereo) [(-) R, cis-4-{1-[2-carboxy-3-(2-methoxyethoxy)propyl]-1-cyclopentanecarboxamido}-1-cyclohexanecarboxylic acid]
- Natriuresis in mouse (i.v.) (mice): inactive at 3 mg/kg
- biological activity [1]: virtually inactive

Reference: patent publication EP0342850A1, “Enantiomeric glutaramide diuretic agents” (Pfizer Limited, priority 1988, dated 1989)
